Biological target: T1, oxysterol-binding protein (OSBP) (Homo sapiens, UniProt P22059)
T1 sequence (P22059 2-807): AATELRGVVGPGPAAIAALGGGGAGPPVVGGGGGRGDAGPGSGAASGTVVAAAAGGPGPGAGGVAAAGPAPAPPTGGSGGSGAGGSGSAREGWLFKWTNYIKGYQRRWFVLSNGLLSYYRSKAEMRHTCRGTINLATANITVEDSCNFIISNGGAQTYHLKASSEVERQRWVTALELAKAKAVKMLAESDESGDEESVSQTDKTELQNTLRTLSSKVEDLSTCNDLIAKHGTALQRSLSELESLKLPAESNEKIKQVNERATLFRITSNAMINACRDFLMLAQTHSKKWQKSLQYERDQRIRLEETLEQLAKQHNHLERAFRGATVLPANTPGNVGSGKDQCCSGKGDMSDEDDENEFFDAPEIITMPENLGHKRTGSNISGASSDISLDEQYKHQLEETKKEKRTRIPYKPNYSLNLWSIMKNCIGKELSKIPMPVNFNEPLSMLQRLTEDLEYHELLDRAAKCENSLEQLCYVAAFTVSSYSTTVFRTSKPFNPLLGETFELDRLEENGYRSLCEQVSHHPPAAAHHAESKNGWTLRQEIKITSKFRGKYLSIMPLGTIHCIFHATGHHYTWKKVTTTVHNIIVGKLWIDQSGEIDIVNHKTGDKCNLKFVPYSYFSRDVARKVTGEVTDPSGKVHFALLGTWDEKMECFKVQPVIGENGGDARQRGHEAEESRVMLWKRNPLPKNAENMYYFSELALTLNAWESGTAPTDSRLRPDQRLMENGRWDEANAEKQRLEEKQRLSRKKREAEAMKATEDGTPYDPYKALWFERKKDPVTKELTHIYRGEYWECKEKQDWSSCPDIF
Experiment: MicroScale Thermophoresis with purified GFP-OSBP

Q: Which Kd does the source give for `CCC(C)n1ncn(-c2ccc(N3CCN(c4ccc(OCC5COC(Cn6cncn6)(c6ccc(Cl)cc6Cl)O5)cc4)CC3)cc2)c1=O` (stereo not shown) [ITZ, itraconazole] here?
A: ~430 nM

Reference: PMC4383725 (Cell reports, 2015)
